Measurements: the OligoGym collection
Oligonucleotides are written 5' to 3', each unit as a sugar letter and its base; * is a phosphorothioate linkage, no mark a phosphodiester; rarer units and linkages stand in square brackets, end groups in braces. Plain capitals give the bases only. Oligonucleotides are given in HELM: sugar(base)linkage, 5' to 3'; d 2'-deoxyribose, r ribose, m 2'-O-methylribose, p phosphate. ss, as = sense and antisense strand; d = 2'-deoxy (DNA); r = 2'-OH (RNA)

target: UBE2N; test: reporter assay of Huesken 2005; conditions: siRNA
Note: test concentration or dose not given here.

Substance	normalised inhibition (eCFP-eYFP dual reporter) [%]
RNA1{r(U)p.r(U)p.r(C)p.r(A)p.r(U)p.r(G)p.r(U)p.r(G)p.r(G)p.r(U)p.r(C)p.r(A)p.r(U)p.r(U)p.r(G)p.r(C)p.r(U)p.r(G)p.r(G)p.d(T)p.d(T)}|RNA2{r(C)p.r(C)p.r(A)p.r(G)p.r(C)p.r(A)p.r(A)p.r(U)p.r(G)p.r(A)p.r(C)p.r(C)p.r(A)p.r(C)p.r(A)p.r(U)p.r(G)p.r(A)p.r(A)p.d(A)p.d(A)}$$$RNA1{StrandType:ss}|RNA2{StrandType:as}$	39.5
RNA1{r(U)p.r(U)p.r(G)p.r(C)p.r(U)p.r(G)p.r(G)p.r(C)p.r(C)p.r(C)p.r(U)p.r(C)p.r(A)p.r(G)p.r(G)p.r(A)p.r(U)p.r(U)p.r(C)p.d(T)p.d(T)}|RNA2{r(G)p.r(A)p.r(A)p.r(U)p.r(C)p.r(C)p.r(U)p.r(G)p.r(A)p.r(G)p.r(G)p.r(G)p.r(C)p.r(C)p.r(A)p.r(G)p.r(C)p.r(A)p.r(A)p.d(T)p.d(G)}$$$RNA1{StrandType:ss}|RNA2{StrandType:as}$	50.2
RNA1{r(U)p.r(U)p.r(G)p.r(G)p.r(G)p.r(A)p.r(A)p.r(G)p.r(A)p.r(A)p.r(U)p.r(A)p.r(U)p.r(G)p.r(U)p.r(C)p.r(U)p.r(A)p.r(G)p.d(T)p.d(T)}|RNA2{r(C)p.r(U)p.r(A)p.r(G)p.r(A)p.r(C)p.r(A)p.r(U)p.r(A)p.r(U)p.r(U)p.r(C)p.r(U)p.r(U)p.r(C)p.r(C)p.r(C)p.r(A)p.r(A)p.d(C)p.d(T)}$$$RNA1{StrandType:ss}|RNA2{StrandType:as}$	52.8
RNA1{r(U)p.r(U)p.r(U)p.r(A)p.r(A)p.r(A)p.r(C)p.r(U)p.r(U)p.r(G)p.r(A)p.r(A)p.r(C)p.r(U)p.r(A)p.r(U)p.r(U)p.r(C)p.r(C)p.d(T)p.d(T)}|RNA2{r(G)p.r(G)p.r(A)p.r(A)p.r(U)p.r(A)p.r(G)p.r(U)p.r(U)p.r(C)p.r(A)p.r(A)p.r(G)p.r(U)p.r(U)p.r(U)p.r(A)p.r(A)p.r(A)p.d(A)p.d(G)}$$$RNA1{StrandType:ss}|RNA2{StrandType:as}$	29.9
RNA1{r(U)p.r(U)p.r(U)p.r(C)p.r(A)p.r(U)p.r(G)p.r(U)p.r(G)p.r(G)p.r(U)p.r(C)p.r(A)p.r(U)p.r(U)p.r(G)p.r(C)p.r(U)p.r(G)p.d(T)p.d(T)}|RNA2{r(C)p.r(A)p.r(G)p.r(C)p.r(A)p.r(A)p.r(U)p.r(G)p.r(A)p.r(C)p.r(C)p.r(A)p.r(C)p.r(A)p.r(U)p.r(G)p.r(A)p.r(A)p.r(A)p.d(A)p.d(T)}$$$RNA1{StrandType:ss}|RNA2{StrandType:as}$	39.8
RNA1{r(U)p.r(U)p.r(U)p.r(U)p.r(G)p.r(A)p.r(A)p.r(A)p.r(G)p.r(A)p.r(U)p.r(A)p.r(A)p.r(G)p.r(U)p.r(G)p.r(G)p.r(U)p.r(C)p.d(T)p.d(T)}|RNA2{r(G)p.r(A)p.r(C)p.r(C)p.r(A)p.r(C)p.r(U)p.r(U)p.r(A)p.r(U)p.r(C)p.r(U)p.r(U)p.r(U)p.r(C)p.r(A)p.r(A)p.r(A)p.r(A)p.d(T)p.d(A)}$$$RNA1{StrandType:ss}|RNA2{StrandType:as}$	35.5

target: UBE2G1; test: reporter assay of Huesken 2005; conditions: siRNA

Substance	normalised inhibition (eCFP-eYFP dual reporter) [%]
sense rArArArArGrCrCrArGrArGrGrArArCrGrCrUrGdTdT / antisense rCrArGrCrGrUrUrCrCrUrCrUrGrGrCrUrUrUrUdCdA	32.6
sense rArArArCrCrArUrCrArUrGrArUrUrArGrUrGrUdTdT / antisense rArCrArCrUrArArUrCrArUrGrArUrGrGrUrUrUdCdC	66.9
sense rArArArGrUrUrGrCrCrCrGrCrUrGrUrGrUrArAdTdT / antisense rUrUrArCrArCrArGrCrGrGrGrCrArArCrUrUrUdTdC	93.9
sense rArArCrCrArUrCrArUrGrArUrUrArGrUrGrUrCdTdT / antisense rGrArCrArCrUrArArUrCrArUrGrArUrGrGrUrUdTdC	65.4
sense rArArGrCrCrArGrArGrGrArArCrGrCrUrGrGrCdTdT / antisense rGrCrCrArGrCrGrUrUrCrCrUrCrUrGrGrCrUrUdTdT	35.9
sense rArArGrUrUrGrCrCrCrGrCrUrGrUrGrUrArArGdTdT / antisense rCrUrUrArCrArCrArGrCrGrGrGrCrArArCrUrUdTdT	79
sense rArArUrCrUrGrGrCrArCrCrCrArArArUrGrUrUdTdT / antisense rArArCrArUrUrUrGrGrGrUrGrCrCrArGrArUrUdTdC	73.4
sense rArArUrGrGrArGrGrGrArArGrArUrArGrArArAdTdT / antisense rUrUrUrCrUrArUrCrUrUrCrCrCrUrCrCrArUrUdCdT	85.9
sense rArArUrGrUrUrGrArUrGrCrUrGrCrGrArArArGdTdT / antisense rCrUrUrUrCrGrCrArGrCrArUrCrArArCrArUrUdAdG	93.5
sense rArCrArCrUrGrUrGrGrArArArCrCrArUrCrArUdTdT / antisense rArUrGrArUrGrGrUrUrUrCrCrArCrArGrUrGrUdGdG	89.3
sense rArCrCrUrCrCrUrArArArArUrGrArArArUrUrCdTdT / antisense rGrArArUrUrUrCrArUrUrUrUrArGrGrArGrGrUdCdG	39.5
sense rArCrCrUrGrCrUrArArUrGrUrUrGrArUrGrCrUdTdT / antisense rArGrCrArUrCrArArCrArUrUrArGrCrArGrGrUdGdA	93.9
sense rArGrArCrCrCrUrArArUrGrGrArGrArCrUrCrAdTdT / antisense rUrGrArGrUrCrUrCrCrArUrUrArGrGrGrUrCrUdGdC	89.8
sense rArGrArCrUrCrArCrCrUrGrCrUrArArUrGrUrUdTdT / antisense rArArCrArUrUrArGrCrArGrGrUrGrArGrUrCrUdCdC	81.1
sense rArGrArUrArCrArCrUrUrUrArUrGrArArGrGrUdTdT / antisense rArCrCrUrUrCrArUrArArArGrUrGrUrArUrCrUdGdG	78.7
sense rArGrArUrArGrArArArUrGrGrArGrArArUrUrUdTdT / antisense rArArArUrUrCrUrCrCrArUrUrUrCrUrArUrCrUdTdC	102
sense rArGrArUrUrArUrCrCrCrCrUrCrCrGrArCrCrUdTdT / antisense rArGrGrUrCrGrGrArGrGrGrGrArUrArArUrCrUdTdT	84.2
sense rArGrCrCrArGrArGrGrArArCrGrCrUrGrGrCrUdTdT / antisense rArGrCrCrArGrCrGrUrUrCrCrUrCrUrGrGrCrUdTdT	37.8
sense rArGrCrCrUrGrGrGrGrArArGrArUrArArGrUrAdTdT / antisense rUrArCrUrUrArUrCrUrUrCrCrCrCrArGrGrCrUdCdA	78.6

Substance	normalised inhibition (eCFP-eYFP dual reporter) [%]
sense rArGrUrGrUrCrArUrUrUrCrUrArUrGrCrUrGrGdTdT / antisense rCrCrArGrCrArUrArGrArArArUrGrArCrArCrUdAdA	47.6
sense rArUrArArGrUrArUrGrGrUrUrArUrGrArArArAdTdT / antisense rUrUrUrUrCrArUrArArCrCrArUrArCrUrUrArUdCdT	69.3
sense rArUrCrCrArGrUrGrGrArArGrGrCrUrUrUrUrCdTdT / antisense rGrArArArArGrCrCrUrUrCrCrArCrUrGrGrArUdTdT	65.4
sense rArUrCrUrCrUrArCrCrGrArUrGrGrGrArArGrUdTdT / antisense rArCrUrUrCrCrCrArUrCrGrGrUrArGrArGrArUdCdA	67.7
sense rArUrGrArCrArArUrGrArUrCrUrCrUrArCrCrGdTdT / antisense rCrGrGrUrArGrArGrArUrCrArUrUrGrUrCrArUdCdT	40.5
sense rArUrGrGrUrUrArUrGrArArArArGrCrCrArGrAdTdT / antisense rUrCrUrGrGrCrUrUrUrUrCrArUrArArCrCrArUdAdC	39.2
sense rArUrGrUrUrGrArUrGrCrUrGrCrGrArArArGrAdTdT / antisense rUrCrUrUrUrCrGrCrArGrCrArUrCrArArCrArUdTdA	104
sense rArUrUrGrGrCrCrCrUrCrCrArGrArUrArCrArCdTdT / antisense rGrUrGrUrArUrCrUrGrGrArGrGrGrCrCrArArUdAdA	36.1
sense rCrArArUrGrArUrCrUrCrUrArCrCrGrArUrGrGdTdT / antisense rCrCrArUrCrGrGrUrArGrArGrArUrCrArUrUrGdTdC	86.7
sense rCrArCrCrCrArArArUrGrUrUrGrArUrArArArAdTdT / antisense rUrUrUrUrArUrCrArArCrArUrUrUrGrGrGrUrGdCdC	73.1
sense rCrArGrArGrGrArArCrGrCrUrGrGrCrUrCrCrCdTdT / antisense rGrGrGrArGrCrCrArGrCrGrUrUrCrCrUrCrUrGdGdC	42.5
sense rCrArGrGrUrUrUrArArUrArGrArUrGrArCrArAdTdT / antisense rUrUrGrUrCrArUrCrUrArUrUrArArArCrCrUrGdCdA	97.5
sense rCrArUrGrArGrCrCrUrGrGrGrGrArArGrArUrAdTdT / antisense rUrArUrCrUrUrCrCrCrCrArGrGrCrUrCrArUrGdAdA	76
sense rCrArUrUrArCrArGrArArArUrCrUrGrGrCrArCdTdT / antisense rGrUrGrCrCrArGrArUrUrUrCrUrGrUrArArUrGdAdA	50.1
sense rCrCrArCrArCrUrGrUrGrGrArArArCrCrArUrCdTdT / antisense rGrArUrGrGrUrUrUrCrCrArCrArGrUrGrUrGrGdAdT	86.1
sense rCrCrCrUrCrCrGrArCrCrUrCrCrUrArArArArUdTdT / antisense rArUrUrUrUrArGrGrArGrGrUrCrGrGrArGrGrGdGdA	62.4
sense rCrCrUrArArArArUrGrArArArUrUrCrArUrUrAdTdT / antisense rUrArArUrGrArArUrUrUrCrArUrUrUrUrArGrGdAdG	69.6
sense rCrCrUrGrCrUrArArUrGrUrUrGrArUrGrCrUrGdTdT / antisense rCrArGrCrArUrCrArArCrArUrUrArGrCrArGrGdTdG	97.5
